PubChem BioAssay (NCI)
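Step 1: Grow cells in 96-well plates. Step 2: Expose to compound for 48 hours at 5 concentrations. Step 3: Interpolate endpoints linearly; if unreached, use highest concentration. GI50 marks 50% less growth. TGI: total growth inhibition.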

Columns and labels:
Test in all cases: NCI anticancer screen, dose series, 48 h
[1] = test system: SN12C renal
[2] = test system: SK-MEL-5 melanoma
[3] = test system: SK-OV-3 ovarian
[4] = test system: HCT-15 colon
[5] = test system: SF-295 CNS
[6] = test system: U251 CNS
[7] = test system: HL-60(TB) leukemia
[8] = test system: HT29 colon
[9] = test system: IGROV1 ovarian
[10] = test system: ACHN renal
[11] = test system: OVCAR-8 ovarian
[12] = test system: MALME-3M melanoma
[13] = test system: NCI-H226 lung
[14] = test system: TK-10 renal
[15] = test system: HOP-62 NSCLC
[16] = test system: NCI/ADR-RES ovarian
[17] = test system: EKVX NSCLC
[18] = test system: PC-3 prostate
[19] = test system: M14 melanoma
[20] = test system: CAKI-1 renal
[21] = test system: MOLT-4 leukemia
[22] = test system: SNB-19 CNS
[23] = test system: OVCAR-3 ovarian
[24] = test system: MCF7 breast
[25] = test system: SK-MEL-28 melanoma
[26] = test system: RPMI-8226 leukemia
[27] = test system: UACC-62 melanoma
[28] = test system: T-47D breast
[29] = test system: HCC-2998 colon
[30] = test system: HCT-116 colon
[31] = test system: DU-145 prostate
[32] = test system: K-562 leukemia
[33] = test system: 786-0 renal
[34] = test system: COLO 205 colon
[35] = test system: NCI-H23 lung
[36] = test system: SNB-75 CNS
[37] = test system: OVCAR-5 ovarian
[38] = test system: SK-MEL-2 melanoma
[39] = test system: SF-539 CNS
[40] = test system: KM12 colon
[41] = test system: RXF 393 renal
[42] = test system: MDA-MB-231 breast
[43] = test system: MDA-MB-468 breast
[44] = test system: HOP-92 NSCLC
[45] = test system: BT-549 breast
[46] = test system: OVCAR-4 ovarian
[47] = test system: LOX IMVI melanoma
[48] = test system: UACC-257 melanoma
[49] = test system: A498 renal
[50] = test system: HS 578T breast
[51] = test system: MDA-MB-435
[52] = test system: CCRF-CEM leukemia
[53] = test system: UO-31 renal
[54] = test system: SF-268 CNS
[55] = test system: A549 NSCLC

For `Nc1cc(-c2c[nH]c3ccc(Cl)cc23)nc2cc(-c3c[nH]c4ccccc34)nn12`, the GI50 [1] was 3.63 µM, the TGI [1] was 14.3 µM and the GI50 [2] was 2.05 µM. The TGI [2] was 4.42 µM, the GI50 [3] was 6.25 µM and the TGI [3] was 20 µM. It also gave a GI50 [4] of 1.61 µM, a TGI [4] of 3.24 µM and a GI50 [5] of 1.81 µM. It also gave a TGI [5] of 3.61 µM, a GI50 [6] of 1.8 µM and a TGI [6] of 4.22 µM. The GI50 [7] was 2.09 µM, the TGI [7] was 7.43 µM and the GI50 [8] was 2.04 µM. It also gave a TGI [8] of 4.62 µM, a GI50 [9] of 3.34 µM and a TGI [9] of 12.7 µM. It also gave a GI50 [10] of 2.76 µM, a TGI [10] of 7.77 µM and a GI50 [11] of 3.19 µM. The TGI [11] was 17.3 µM, the GI50 [12] was 1.78 µM and the TGI [12] was 3.23 µM. The GI50 [13] was 3.52 µM, the TGI [13] was 28 µM and the GI50 [14] was 2.9 µM. The TGI [14] was 13.3 µM, the GI50 [15] was 3.1 µM and the TGI [15] was 10.7 µM. For the same compound, the GI50 [16] was 3.45 µM, the TGI [16] was 14.7 µM and the GI50 [17] was 2.44 µM. The TGI [17] was 8.51 µM, the GI50 [18] was 2.59 µM and the TGI [18] was 7.89 µM. For the same compound, the GI50 [19] was 1.85 µM, the TGI [19] was 4.17 µM and the GI50 [20] was 1.99 µM. The TGI [20] was 5.28 µM, the GI50 [21] was 1.86 µM and the TGI [21] was 5.04 µM. The GI50 [22] was 2.95 µM, the TGI [22] was 10.7 µM and the GI50 [23] was 2.9 µM. The TGI [23] was 10.5 µM, the GI50 [24] was 1.83 µM and the TGI [24] was 3.96 µM. The GI50 [25] was 1.87 µM, the TGI [25] was 4.23 µM and the GI50 [26] was 2.29 µM. It also gave a TGI [26] of 6.98 µM, a GI50 [27] of 1.72 µM and a TGI [27] of 3.55 µM. For the same compound, the GI50 [28] was 2.61 µM, the GI50 [29] was 1.86 µM and the TGI [29] was 3.6 µM. It also gave a GI50 [30] of 1.67 µM, a TGI [30] of 3.12 µM and a GI50 [31] of 3.56 µM. The TGI [31] was 12.9 µM, the GI50 [32] was 2.15 µM and the TGI [32] was 5.7 µM. The GI50 [33] was 1.67 µM, the TGI [33] was 3.67 µM and the GI50 [34] was 1.75 µM. For the same compound, the TGI [34] was 3.6 µM, the GI50 [35] was 2.23 µM and the TGI [35] was 5.5 µM. For the same compound, the GI50 [36] was 1.71 µM, the TGI [36] was 9.69 µM and the GI50 [37] was 1.9 µM. For the same compound, the TGI [37] was 4.32 µM, the GI50 [38] was 2.28 µM and the TGI [38] was 6.05 µM. It also gave a GI50 [39] of 1.81 µM, a TGI [39] of 3.47 µM and a GI50 [40] of 2.02 µM. It also gave a TGI [40] of 4.27 µM, a GI50 [41] of 2.23 µM and a TGI [41] of 6.61 µM. It also gave a GI50 [42] of 1.96 µM, a TGI [42] of 3.6 µM and a GI50 [43] of 1.45 µM. For the same compound, the TGI [43] was 3.2 µM, the GI50 [44] was 2.1 µM and the TGI [44] was 5.65 µM. For the same compound, the GI50 [45] was 4.98 µM, the TGI [45] was 17.9 µM and the GI50 [46] was 3.65 µM. It also gave a TGI [46] of 17.1 µM, a GI50 [47] of 1.75 µM and a TGI [47] of 3.22 µM. For the same compound, the GI50 [48] was 2.99 µM, the TGI [48] was 12.2 µM and the GI50 [49] was 2.09 µM. For the same compound, the TGI [49] was 7.69 µM, the GI50 [50] was 3.25 µM and the TGI [50] was 16.4 µM. It also gave a GI50 [51] of 2.42 µM, a TGI [51] of 7.27 µM and a GI50 [52] of 2.99 µM. For the same compound, the TGI [52] was 9.39 µM, the GI50 [53] was 2.59 µM and the TGI [53] was 10.4 µM. The GI50 [54] was 2.75 µM, the TGI [54] was 12.7 µM and the GI50 [55] was 2.76 µM. For the same compound, the TGI [55] was 12.1 µM.
